Measured values as given in ChEMBL document CHEMBL1124431, “Preparation and antitumor activity of additional mitomycin A analogues” (J Med Chem, 1989).

Columns and labels:
[1] = Partition coefficient (logP); assay type: physicochemical; conditions: octanol/water
[2] = system: P388; assay: Maximal effect of the given optimal dose of 3.2 mg/kg against P388 leukemia cells in mice; assay type: functional, Mus musculus
[3] = system: P388; assay: Minimum effective dose was determined on P388 leukemia cells in mice; assay type: functional, Mus musculus; conditions: for minimal effective dose: Mus musculus, P388, read-out: MED
[4] = species: Mus musculus; assay: log(1/C) was estimated in mice; assay type: organism-based; conditions: in vivo
[5] = system: P388; assay: Maximal effect of the given optimal dose of 0.8 mg/kg against P388 leukemia cells in mice; assay type: functional, Mus musculus
[6] = system: P388; assay: Maximal effect of the given optimal dose of 1.6 mg/kg against P388 leukemia cells in mice; assay type: functional, Mus musculus
[7] = system: P388; assay: Maximal effect of the given optimal dose of 0.4 mg/kg against P388 leukemia cells in mice; assay type: functional, Mus musculus
[8] = system: P388; assay: Maximal effect of the given optimal dose of 12.8 mg/kg against P388 leukemia cells in mice; assay type: functional, Mus musculus
[9] = system: P388; assay: Maximal effect of the given optimal dose of 6.4 mg/kg against P388 leukemia cells in mice; assay type: functional, Mus musculus
[10] = system: B16; assay: Maximal effect of the given optimal dose of 0.4 mg/kg against B16 melanoma cells in mice; assay type: organism-based; parameters: dose 0.4 mg/kg; conditions: mouse, in vivo
[11] = system: P388; assay: Maximal effect of the given optimal dose of 0.2 mg/kg against P388 leukemia cells in mice; assay type: functional, Mus musculus
[12] = system: B16; assay: Minimum effective dose was determined on B16 melanoma cells in mice; assay type: functional; conditions: Mus musculus, read-out: MED
[13] = system: B16; assay: Maximal effect of the given optimal dose of 1.2 mg/kg against B16 melanoma in mice; assay type: functional, Mus musculus
[14] = system: B16; assay: Maximal effect of the given optimal dose of 0.8 mg/kg against B16 melanoma cells in mice; assay type: functional, Mus musculus
[15] = system: B16; assay: Maximal effect of the given optimal dose of 1.6 mg/kg against B16 melanoma in mice; assay type: functional, Mus musculus
[16] = system: B16; assay: Maximal effect of the given optimal dose of 0.4 mg/kg against B16 melanoma in mice; assay type: functional, Mus musculus
[17] = system: B16; assay: Maximal effect of the given optimal dose of 0.8 mg/kg against B16 melanoma in mice; assay type: functional, Mus musculus
[18] = system: B16; assay: Maximal effect of the given optimal dose of 0.3 mg/kg against B16 melanoma in mice; assay type: functional, Mus musculus

SMILES | logP [1] | MED [3] | minimal effective dose [3] | Log 1/C [4] | further results
CO[C@@]12C(COC(N)=O)C3=C(C(=O)C(C)=C(OCc4cccs4)C3=O)N1CC1NC12 (some centres not stated) | 2.07 | 7.13e-06 M/kg | 3.2 mg/kg | 5.15 | T/C [2]: 159%
COCC(C)OC1=C(C)C(=O)C2=C(C1=O)C(COC(N)=O)[C@@]1(OC)C3NC3CN21 (some centres not stated) | 0.79 | 4.81e-07 M/kg | 0.2 mg/kg | 6.21 | T/C [5]: 206%
CCOCCOC1=C(C)C(=O)C2=C(C1=O)C(COC(N)=O)[C@@]1(OC)C3NC3CN21 (some centres not stated) | 0.79 | 4.65e-07 M/kg | 0.2 mg/kg | 7.33 | T/C [6]: 133%
CO[C@@]12C(COC(N)=O)C3=C(C(=O)C(C)=C(OCC4OCCO4)C3=O)N1CC1NC12 (some centres not stated) | -0.18 | 5.88e-07 M/kg | < 0.05 mg/kg | 7.23 | T/C [7]: 267%
CO[C@@]12C(COC(N)=O)C3=C(C(=O)C(C)=C(OCCN4CCCCC4)C3=O)N1CC1NC12 (some centres not stated) | 1.96 | 8.71e-07 M/kg | 0.4 mg/kg | 6.06 | T/C [8]: 191%
CO[C@@]12C(COC(N)=O)C3=C(C(=O)C(C)=C(OCCSC)C3=O)N1CC1NC12 (some centres not stated) | 1.37 | 9.57e-07 M/kg | 0.4 mg/kg | 6.02 | T/C [6]: 165%
CO[C@@]12C(COC(N)=O)C3=C(C(=O)C(C)=C(OCCN4CCCC4)C3=O)N1CC1NC12 (some centres not stated) | 1.46 | 1.13e-07 M/kg | < 0.1 mg/kg | 6.94 | T/C [9]: 217%; T/C [10]: 107%
CO[C@@]12C(COC(N)=O)C3=C(C(=O)C(C)=C(OCCCN4CCN(C)CC4)C3=O)N1CC1NC12 (some centres not stated) | 1.16 | 1.265e-05 M/kg | 6.4 mg/kg | 4.9 | T/C [8]: >167%
CO[C@@]12C(COC(N)=O)C3=C(C(=O)C(C)=C(OCCN4CCSCC4)C3=O)N1CC1NC12 (some centres not stated) | 2.07 | 2.06e-07 M/kg | 0.1 mg/kg | 6.67 | T/C [9]: >172%
CCN1CCCC1CCOC1=C(C)C(=O)C2=C(C1=O)C(COC(N)=O)[C@@]1(OC)C3NC3CN21 (some centres not stated) | 1.96 | 1.09e-07 M/kg | < 0.1 mg/kg | 6.96 | T/C [8]: 211%
CO[C@@]12C(COC(N)=O)C3=C(C(=O)C(C)=C(OCCSCc4ccccc4)C3=O)N1CC1NC12 (some centres not stated) | 3.58 | 4.25e-07 M/kg | 0.2 mg/kg | 6.37 | T/C [9]: 156%
CO[C@@]12C(COC(N)=O)C3=C(C(=O)C(C)=C(OC/C=C/CO)C3=O)N1CC1NC12 (some centres not stated) | 0.46 | 4.83e-07 M/kg | 0.2 mg/kg | 6.21 | T/C [2]: 150%
CO[C@@]12C(COC(N)=O)C3=C(C(=O)C(C)=C(OCCCN(CCO)CCO)C3=O)N1CC1NC12 (some centres not stated) | -0.28 | – | – | – | T/C [11]: 106%
CO[C@@]12C(COC(N)=O)C3=C(C(=O)C(C)=C(OC4CCN(C)CC4)C3=O)N1CC1NC12 (some centres not stated) | 1.46 | 7.1e-06 M/kg | 3.2 mg/kg | 5.15 | T/C [2]: 155%
CO[C@@]12C(COC(N)=O)C3=C(C(=O)C(C)=C(OC4COCOC4)C3=O)N1CC1NC12 (some centres not stated) | 0.31 | 1.18e-07 M/kg | < 0.1 mg/kg | 6.93 | minimal effective dose [12]: < 0.3 mg/kg; T/C [6]: 210%; T/C [13]: 222%
CO[C@@]12C(COC(N)=O)C3=C(C(=O)C(C)=C(OCc4ccccn4)C3=O)N1CC1NC12 (some centres not stated) | 0.91 | 9.2e-07 M/kg | 0.4 mg/kg | 6.04 | T/C [5]: 164%
CCSCC(O)COC1=C(C)C(=O)C2=C(C1=O)C(COC(N)=O)[C@@]1(OC)C3NC3CN21 (some centres not stated) | 1.25 | 4.33e-07 M/kg | 0.2 mg/kg | 6.37 | T/C [2]: >322%

SMILES | logP [1] | MED [3] | minimal effective dose [3] | Log 1/C [4] | further results
CO[C@@]12C(COC(N)=O)C3=C(C(=O)C(C)=C(OCCSCCSCCO)C3=O)N1CC1NC12 (some centres not stated) | 1.86 | 1.603e-06 M/kg | 0.8 mg/kg | 5.84 | T/C [5]: 140%
CO[C@@]12C(COC(N)=O)C3=C(C(=O)C(C)=C(OCCCSCCCO)C3=O)N1CC1NC12 (some centres not stated) | 3.49 | 1.02e-07 M/kg | < 0.1 mg/kg | 6.98 | T/C [9]: 153%
CO[C@@]12C(COC(N)=O)C3=C(C(=O)C(C)=C(OC4CC4)C3=O)N1CC1NC12 (some centres not stated) | 1.17 | 1.3e-07 M/kg | 0.05 mg/kg | 6.89 | T/C [14]: 138%; T/C [2]: 172%; minimal effective dose [12]: 0.8 mg/kg
CO[C@@]12C(COC(N)=O)C3=C(C(=O)C(C)=C(OCC4COCO4)C3=O)N1CC1NC12 (some centres not stated) | 0.31 | 4.75e-07 M/kg | 0.2 mg/kg | 6.32 | T/C [7]: 140%
CO[C@@]12C(COC(N)=O)C3=C(C(=O)C(C)=C(OCCNC(C)=O)C3=O)N1CC1NC12 (some centres not stated) | -0.21 | 9.32e-07 M/kg | 0.4 mg/kg | 6.03 | T/C [8]: 150%
CO[C@@]12C(COC(N)=O)C3=C(C(=O)C(C)=C(OC4CCOCC4)C3=O)N1CC1NC12 (some centres not stated) | 1.29 | 1.17e-07 M/kg | < 0.1 mg/kg | 6.93 | T/C [2]: 212%; T/C [15]: 135%; minimal effective dose [12]: 1.6 mg/kg
CCO[Si](CCCOC1=C(C)C(=O)C2=C(C1=O)C(COC(N)=O)[C@@]1(OC)C3NC3CN21)(OCC)OCC (some centres not stated) | – | 3.59e-07 M/kg | 0.2 mg/kg | 6.44 | T/C [8]: 167%
CO[C@@]12C(COC(N)=O)C3=C(C(=O)C(C)=C(OCCC4OCCCO4)C3=O)N1CC1NC12 (some centres not stated) | 0.82 | – | – | – | T/C [16]: 154%; minimal effective dose [12]: < 0.3 mg/kg; T/C [11]: 117%
CCOC(=O)CCCOC1=C(C)C(=O)C2=C(C1=O)C(COC(N)=O)[C@@]1(OC)C3NC3CN21 (some centres not stated) | 1.49 | 1.41e-05 M/kg | 6.4 mg/kg | 4.85 | T/C [8]: 171%
COCC(O)COC1=C(C)C(=O)C2=C(C1=O)C(COC(N)=O)[C@@]1(OC)C3NC3CN21 (some centres not stated) | -0.59 | 1.16e-07 M/kg | < 0.1 mg/kg | 6.94 | T/C [5]: 222%; minimal effective dose [12]: 0.2 mg/kg; T/C [17]: 211%
CO[C@@]12C(COC(N)=O)C3=C(C(=O)C(C)=C(OCCC4CCCN4C)C3=O)N1CC1NC12 (some centres not stated) | 1.46 | 7.033e-06 M/kg | 3.2 mg/kg | 5.21 | T/C [8]: >156%
CO[C@@]12C(COC(N)=O)C3=C(C(=O)C(C)=C(OCCOCCCl)C3=O)N1CC1NC12 (some centres not stated) | 1.18 | 6.2e-08 M/kg | < 0.05 mg/kg | 7.21 | T/C [14]: 169%; T/C [2]: 183%; minimal effective dose [12]: 0.4 mg/kg
CO[C@@]12C(COC(N)=O)C3=C(C(=O)C(C)=C(OCCSc4ccccc4)C3=O)N1CC1NC12 (some centres not stated) | 3.12 | 6.73e-06 M/kg | 3.2 mg/kg | 5.17 | T/C [8]: 130%
CO[C@@]12C(COC(N)=O)C3=C(C(=O)C(C)=C(OCCOc4ccccc4)C3=O)N1CC1NC12 (some centres not stated) | 2.39 | 3.516e-06 M/kg | 1.6 mg/kg | 5.45 | T/C [2]: 130%
CO[C@@]12C(COC(N)=O)C3=C(C(=O)C(C)=C(OCC4CC4)C3=O)N1CC1NC12 (some centres not stated) | 1.67 | 1.028e-06 M/kg | 0.4 mg/kg | 5.97 | T/C [6]: 144%
COC1=C(C)C(=O)C2=C(C1=O)[C@@H](COC(N)=O)[C@@]1(OC)[C@H]3N[C@H]3CN21 [MITOMYCIN A] | – | 1.43e-07 M/kg | 0.05 mg/kg | 6.84 | T/C [2]: 180%; T/C [18]: 177%; minimal effective dose [12]: 0.05 mg/kg
